The text below walks through data of US12064420B2, “Tie-2 activators targeting the Schlemm's canal” (EyePoint Pharmaceuticals, Inc., priority 2019, dated 2024).

SMILES strings stand for the structures.

One test relates to Tie-2. Kind of test: Tie-2 phosphorylation in Schlemm's canal, whole mount immunofluorescence. In kind it is in vivo, mouse. As to conditions: 1 hour after single topical ocular administration of 4% eye drops. The protocol:
VE-PTP expression was assessed in the endothelium of SC in VE-PTP knock-in reporter mice expressing a nuclear-localizing β-galactosidase from the endogenous VE-PTP promoter (VE-PTP+/mut). C57BL/6JRj mice were also used in the experiments as control animals. Mice were anaesthetized using ketamine (125 mg/kg) and xylazine (12.5 mg/kg). 10 μL of Compound 1 eye drop solution (4% Compound 1) or vehicle was applied to each eye. Mice were euthanized 1 hour following dosing, and the eyes were processed for immunofluorescence analysis to detect Tie-2 phosphorylation. […]
To evaluate VE-PTP mediated signaling, tyrosine phosphorylation and activation of Tie-2 in SC following VE-PTP inhibition was assessed one hour following a single topical ocular administration of Compound 1. […]

Test [1] deals with ocular normotensive patients. Kind of test: Phase 1B multiple-ascending dose study of Compound 1 ophthalmic solution, IOP. As to conditions: for mean diurnal IOP reduction in the study eye, relative to the 15 mg/mL dose: ANCOVA model. The format is in vivo, human. As to the method: A multi-center, double-masked, randomized, placebo-controlled, multiple-ascending dose (MAD) cohort study in up to 48 ocular normotensive patients was conducted. For subjects in cohort 1, IOP was between 12 mmHg and 23 mmHg (inclusive) in both eyes on Day −1. Cohorts 2-4 were limited to subjects with pre-treatment IOP≥16 mmHg and ≤23 mmHg in at least one eye and ≤23 mmHg in both eyes at all timepoints on two separate days of IOP assessment during screening. Subjects who received additional carbonic-anhydrase inhibiting drops or cholinergic agonist drops were washed-out for at least 7 days prior to Day −1.
On Day −1 (day before first day of dosing), day 1, and day 7, for all cohorts, a baseline diurnal time point assessment of IOP in both eyes occurred at pre-dose, and 2, 4, and 8 hours post-dose relative to the planned dosing time the following day.
For cohort 1, on the morning of day 1 and day 2, all subjects were administered a single dose (one drop of approximately 30 μL of the dosing solution (Compound 1 or placebo) corresponding to the respective dose level) into the right eye only. If no AEs related to the investigational medicinal product (IMP) that represented a cause for concern were observed, then treatment was administered to both eyes once daily on the mornings of days 3 to 7. For all subsequent cohorts, dose administration was to both eyes on all 7 days (except cohort 4, in which treatment was administered in both eyes twice daily (AM and PM) on days 1-6 with a final single dose in both eyes on the morning of day 7).
Diurnal time point assessments of IOP were performed on day 1 and day 7 in both eyes at pre-dose, and 2, 4, and 8 hours post-dose in all cohorts.
The Compound 1 ophthalmic solution used for the trial was formulated as a sterile unpreserved solution of Compound 1 (0.5% w/v to 4.0% w/v, or 5 mg/mL to 40 mg/mL; as the sodium salt) in a vehicle containing 15% w/v HPβCD and 1% w/v mannitol and adjusted to a pH of 6.5-7.5 with 1N Hydrochloric Acid and/or 1N Sodium Hydroxide. The solution was filtered through sterile 0.22-μm filters, and 0.5 mL was aseptically filled into single-use sterile dose administration bottles suitable for ophthalmic delivery. Placebo was the same as the vehicle for the Compound 1 ophthalmic solution. Compound 1 was stored at United States Pharmacopeia (USP) controlled room temperature.

Regarding `COC(=O)N[C@@H](Cc1ccccc1)C(=O)N[C@@H](Cc1ccc(NS(=O)(=O)O)cc1)c1csc(-c2cccs2)n1` [Compound 1, 4-{(S)-2-[(S)-2-(Methoxycarbonylamino)-3-phenylpropanamido]-2-[2-(thiophen-2-yl)thiazol-4-yl]ethyl}phenylsulfamic acid], the “staining of Schlemm's canal for tyrosine phosphorylated Tie-2 (pY992-Tie-2)” value in the test on Tie-2 was “enhanced”. In addition, the results for the “mean diurnal IOP reduction in the study eye, relative to the 15 mg/mL dose” value in test [1] (40 mg/mL BID topical) and in test [1] (40 mg/mL QD topical) were −2.24 mmHg and −1.93 mmHg, respectively. Besides, the “IOP on day 7 at the 0-hour, pre-dose time point” value in test [1] (40 mg/ml dose, 12 hours after the previous dose) is “persistent TOP reduction”. Also, the “IOP change from baseline at 2, 4, and 8 hours post-dose” value in test [1] (40 mg/ml dose, days 1 and 7) was “significant TOP reductions from baseline”.
